# Test results as given in ChEMBL document CHEMBL6109139, “Rational Design of the First Dual Agonist at Trace Amine-Associated Receptor 1 and 5-HT2C Receptors Based on Binding Pocket Similarity for the Treatment of Schizophrenia and Alzheimer's Disease-Related Psychosis” (J Med Chem, 2025).
# Experiments:
# [1] = target: T1, 5-hydroxytryptamine receptor 2C (Homo sapiens, UniProt P28335); test: Partial agonist activity at recombinant human 5-HT2CR expressed in HEK293 cells incubated for 2 hrs by FLIPR calcium assay; format: functional, cell-based
# T1 sequence (P28335 whole entry): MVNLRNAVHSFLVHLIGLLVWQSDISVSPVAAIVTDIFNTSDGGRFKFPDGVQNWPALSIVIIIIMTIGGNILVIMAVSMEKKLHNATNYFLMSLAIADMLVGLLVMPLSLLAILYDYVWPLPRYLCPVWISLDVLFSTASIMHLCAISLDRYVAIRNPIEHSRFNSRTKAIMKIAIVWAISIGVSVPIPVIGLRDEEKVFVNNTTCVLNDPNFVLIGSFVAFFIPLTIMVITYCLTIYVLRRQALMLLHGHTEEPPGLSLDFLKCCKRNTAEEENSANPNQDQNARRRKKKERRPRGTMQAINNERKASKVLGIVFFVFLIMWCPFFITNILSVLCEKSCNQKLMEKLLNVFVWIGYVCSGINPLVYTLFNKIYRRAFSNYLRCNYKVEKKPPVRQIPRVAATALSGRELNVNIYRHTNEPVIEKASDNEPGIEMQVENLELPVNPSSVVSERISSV
# [2] = Apparent permeability across apical to basolateral side in human Caco-2 cells at 2 uM by LC-MS/MS analysis; format: ADME, cell-based
# [3] = Efflux ratio of apparent permeability across apical to basolateral side in human Caco-2 cells at 2 uM by LC-MS/MS analysis; format: ADME, cell-based
# [4] = Metabolic stability in rat liver microsomes assessed as intrinsic clearance at 1 uM incubated for 60 mins by LC-MS/MS analysis; format: ADME, Microsome; settings: read-out: CLH
# [5] = Metabolic stability in human liver microsomes assessed as intrinsic clearance at 1 uM incubated for 60 mins by LC-MS/MS analysis; format: ADME, Microsome; settings: read-out: CLH
# [6] = Plasma protein binding in rat assessed as unbound fraction by LC-MS/MS analysis; format: ADME, cell-free
# [7] = Plasma protein binding in dog assessed as unbound fraction by LC-MS/MS analysis; format: ADME, cell-free, Canis lupus familiaris
# [8] = Plasma protein binding in human assessed as unbound fraction by LC-MS/MS analysis; format: ADME, cell-free
# Cytochrome P450 1A2 = Cytochrome P450 1A2 (Homo sapiens, UniProt P05177); test: Inhibition of CYP1A2 in human liver microsomes in presence of NADPH by LC-MS/MS analysis; format: ADME, Microsome
# Cytochrome P450 2B6 = Cytochrome P450 2B6 (Homo sapiens, UniProt P20813); test: Inhibition of CYP2B6 in human liver microsomes in presence of NADPH by LC-MS/MS analysis; format: ADME, Microsome
# Cytochrome P450 2C8 = Cytochrome P450 2C8 (Homo sapiens, UniProt P10632); test: Inhibition of CYP2C8 in human liver microsomes in presence of NADPH by LC-MS/MS analysis; format: ADME, Microsome
# Cytochrome P450 2C9 = Cytochrome P450 2C9 (Homo sapiens, UniProt P11712); test: Inhibition of CYP2C9 in human liver microsomes in presence of NADPH by LC-MS/MS analysis; format: ADME, Microsome
# Cytochrome P450 2C19 = Cytochrome P450 2C19 (Homo sapiens, UniProt P33261); test: Inhibition of CYP2C19 in human liver microsomes in presence of NADPH by LC-MS/MS analysis; format: ADME, Microsome
# [9] = Inhibition of CYP2D6 in human liver microsomes in presence of NADPH by LC-MS/MS analysis; format: ADME, Microsome
# Cytochrome P450 3A4 = Cytochrome P450 3A4 (Homo sapiens, UniProt P08684); test: Inhibition of CYP3A4 in human liver microsomes in presence of NADPH by LC-MS/MS analysis; format: ADME, Microsome
# [10] = Drug uptake in male Sprague-Dawley rat brain assessed as parent compound remaining measured after 6 hrs; format: ADME, tissue-based; settings: read-out: Activity
# Cytochrome P450 1A2, sequence (P05177 whole entry): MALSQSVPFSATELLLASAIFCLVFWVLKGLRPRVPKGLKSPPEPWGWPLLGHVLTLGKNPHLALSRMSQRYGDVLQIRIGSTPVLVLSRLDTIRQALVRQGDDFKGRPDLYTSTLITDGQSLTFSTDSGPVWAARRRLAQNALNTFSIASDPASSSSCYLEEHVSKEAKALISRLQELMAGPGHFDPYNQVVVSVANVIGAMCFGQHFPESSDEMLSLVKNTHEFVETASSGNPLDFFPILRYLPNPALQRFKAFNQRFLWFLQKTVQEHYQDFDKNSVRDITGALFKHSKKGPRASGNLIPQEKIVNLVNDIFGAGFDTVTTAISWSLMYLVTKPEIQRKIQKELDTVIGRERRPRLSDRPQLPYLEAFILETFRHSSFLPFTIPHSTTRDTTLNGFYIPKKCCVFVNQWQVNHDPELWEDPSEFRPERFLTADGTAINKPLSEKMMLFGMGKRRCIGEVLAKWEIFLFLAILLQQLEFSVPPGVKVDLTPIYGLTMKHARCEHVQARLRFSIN
# Cytochrome P450 2B6, sequence (P20813 whole entry): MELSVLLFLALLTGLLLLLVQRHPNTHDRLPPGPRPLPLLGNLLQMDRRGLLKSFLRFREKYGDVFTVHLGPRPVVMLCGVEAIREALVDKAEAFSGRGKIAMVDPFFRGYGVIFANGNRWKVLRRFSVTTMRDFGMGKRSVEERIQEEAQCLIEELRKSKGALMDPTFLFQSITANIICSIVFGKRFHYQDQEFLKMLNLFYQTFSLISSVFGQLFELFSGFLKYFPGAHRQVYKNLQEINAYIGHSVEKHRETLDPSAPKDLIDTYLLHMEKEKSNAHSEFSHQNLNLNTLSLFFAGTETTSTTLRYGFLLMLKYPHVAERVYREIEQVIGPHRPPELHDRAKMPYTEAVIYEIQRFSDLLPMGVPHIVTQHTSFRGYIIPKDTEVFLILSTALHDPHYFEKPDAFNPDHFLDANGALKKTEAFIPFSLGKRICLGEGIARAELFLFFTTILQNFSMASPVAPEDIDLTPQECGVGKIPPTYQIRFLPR
# Cytochrome P450 3A4, sequence (P08684 whole entry): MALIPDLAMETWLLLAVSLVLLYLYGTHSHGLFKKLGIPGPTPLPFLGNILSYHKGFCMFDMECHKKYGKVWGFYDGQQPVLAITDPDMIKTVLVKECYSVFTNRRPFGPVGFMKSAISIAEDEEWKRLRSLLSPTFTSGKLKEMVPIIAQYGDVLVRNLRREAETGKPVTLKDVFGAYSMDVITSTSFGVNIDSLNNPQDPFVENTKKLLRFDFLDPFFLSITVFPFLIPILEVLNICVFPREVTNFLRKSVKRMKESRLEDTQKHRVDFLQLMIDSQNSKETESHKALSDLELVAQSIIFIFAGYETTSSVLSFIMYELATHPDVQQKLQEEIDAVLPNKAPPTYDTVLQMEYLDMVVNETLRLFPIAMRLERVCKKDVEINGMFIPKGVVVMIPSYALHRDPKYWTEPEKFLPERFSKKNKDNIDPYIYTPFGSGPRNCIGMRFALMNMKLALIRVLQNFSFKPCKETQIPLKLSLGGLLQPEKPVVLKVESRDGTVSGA
# Cytochrome P450 2C19, sequence (P33261 whole entry): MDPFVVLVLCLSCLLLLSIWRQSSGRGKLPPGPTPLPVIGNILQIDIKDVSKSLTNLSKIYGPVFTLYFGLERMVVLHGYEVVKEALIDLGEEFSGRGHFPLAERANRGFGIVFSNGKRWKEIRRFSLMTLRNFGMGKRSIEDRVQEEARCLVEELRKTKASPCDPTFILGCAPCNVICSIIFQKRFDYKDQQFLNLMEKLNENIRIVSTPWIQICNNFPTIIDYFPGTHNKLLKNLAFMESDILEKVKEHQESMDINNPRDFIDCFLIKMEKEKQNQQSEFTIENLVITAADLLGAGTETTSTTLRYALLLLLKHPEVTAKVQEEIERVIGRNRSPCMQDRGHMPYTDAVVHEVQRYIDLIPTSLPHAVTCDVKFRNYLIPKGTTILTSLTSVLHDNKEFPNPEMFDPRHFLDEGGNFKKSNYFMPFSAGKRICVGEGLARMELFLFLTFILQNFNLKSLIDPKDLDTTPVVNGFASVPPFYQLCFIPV
# Cytochrome P450 2C8, sequence (P10632 whole entry): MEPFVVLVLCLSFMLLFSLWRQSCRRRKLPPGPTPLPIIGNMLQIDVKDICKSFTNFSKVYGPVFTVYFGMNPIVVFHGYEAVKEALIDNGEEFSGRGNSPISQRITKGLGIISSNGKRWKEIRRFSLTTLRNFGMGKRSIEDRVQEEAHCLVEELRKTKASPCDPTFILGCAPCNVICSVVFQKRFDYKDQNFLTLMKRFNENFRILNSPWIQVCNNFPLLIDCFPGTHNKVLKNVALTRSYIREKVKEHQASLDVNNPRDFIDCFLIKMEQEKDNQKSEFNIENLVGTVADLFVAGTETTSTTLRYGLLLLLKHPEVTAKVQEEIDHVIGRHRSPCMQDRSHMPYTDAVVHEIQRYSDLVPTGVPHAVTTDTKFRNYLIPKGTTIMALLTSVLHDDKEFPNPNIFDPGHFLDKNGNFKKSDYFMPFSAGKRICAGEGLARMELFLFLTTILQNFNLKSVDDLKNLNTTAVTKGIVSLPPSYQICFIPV
# Cytochrome P450 2C9, sequence (P11712 whole entry): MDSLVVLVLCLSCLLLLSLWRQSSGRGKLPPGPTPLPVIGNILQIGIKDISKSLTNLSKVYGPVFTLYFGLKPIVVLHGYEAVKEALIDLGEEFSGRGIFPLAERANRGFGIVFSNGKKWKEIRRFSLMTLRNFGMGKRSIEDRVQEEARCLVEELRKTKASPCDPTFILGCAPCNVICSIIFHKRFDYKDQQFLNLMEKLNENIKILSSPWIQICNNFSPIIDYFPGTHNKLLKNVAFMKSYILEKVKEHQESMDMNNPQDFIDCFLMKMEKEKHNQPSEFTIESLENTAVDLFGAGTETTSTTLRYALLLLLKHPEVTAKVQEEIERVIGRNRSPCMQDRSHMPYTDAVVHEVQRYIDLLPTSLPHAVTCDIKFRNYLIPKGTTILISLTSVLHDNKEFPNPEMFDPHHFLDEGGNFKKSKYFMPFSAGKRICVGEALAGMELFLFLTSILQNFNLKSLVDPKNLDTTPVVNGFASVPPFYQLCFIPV
compound,measurement,setting,value
COc1ccsc1C1CNCCO1 (stereo in doubt; 25a),EC50,[1],4.39 µM
same,Papp A→B at 2 µM,[2],46 ×10⁻⁶ cm/s
same,efflux ratio at 2 µM,[3],0.6
same,CLint scaled at 1 µM,[4],< 13.5 mL/min/kg
same,CLint scaled at 1 µM,[5],< 6.8 mL/min/kg
same,fraction unbound,[6],0.872
same,fraction unbound,[7],0.73
same,fraction unbound,[8],0.747
same,IC50,Cytochrome P450 1A2,> 50 µM
same,IC50,Cytochrome P450 2B6,> 50 µM
same,IC50,Cytochrome P450 2C8,> 50 µM
same,IC50,Cytochrome P450 2C9,> 50 µM
same,IC50,Cytochrome P450 2C19,> 50 µM
same,IC50,[9],> 50 µM
same,IC50,Cytochrome P450 3A4,> 50 µM
same,remaining at 6 h,[10],< 20%
